Source: EP4410284A1, “COMPOUND AND METHOD FOR THE TREATMENT OF ZELLWEGER SPECTRUM DISORDER” (Apteeus, priority 2023, dated 2024)
Counter-ions that a name gives are not always drawn.

Legend:
Assay type in all cases: cell-based, human
GM16513 cells = experiment: Beta-oxidation of d4-C24:0 (LC-MS/MS)
Protocol: (§1) Degradation (to d4-C16:0) and elongation (to d4-C26:0 and d4-C28:0) of d4-VLCFA (very long chain fatty acid) in the cells was measured using d4-C24:0 as substrate (D-6145-CDN isotopes). D4-C24:0 was solubilized in culture medium using α-cyclodetrin, with a molar ratio of d4-C24:0:α-cyclodextrin 1:50. Cyclodextrins, which are cyclic oligosaccharides, are commonly used to solubilize fatty acids by complexation, for supplementation of cell culture media, and serve as vehicle to deliver fatty acids to the cells. Cyclodextrins have a polar surface and a hydrophobic cylindrical cavity that can bind and solubilize a wide variety of hydrophobic molecules, such as fatty acids, while remaining soluble in water. The assay was performed in T75 culture flasks for 3 or 10 days. The medium was replaced by fresh medium every 2-3 days and supplemented with d4-C24:0 for the last 3 days. After 3 or 10 days, cells were harvested and lysated in water (100-200 µL) by freeze/thaw cycle and sonication for 5 min. Total proteins were quantified using BCA assay and 100 µg of total proteins were used for each sample.
(§2) After cell lysis, the samples were dried using a rotating evaporator (Genevac EZ-2, SP Scientific), set at 40°C for 2h under vacuum. After evaporation, a hydrolysis mix consisting of 90% acetonitrile and 10% NaOH 1N in water was added to the samples. The samples were incubated for 1h at room temperature under stirring (300 rpm). After hydrolysis, the samples were evaporated using a Genevac device, under vacuum, at 40°C for 2h.
(§3) Derivation of free fatty acids was done using a 2.5 mg/mL Na2CO3 solution in DMF and a 2.5 mg/mL TMAE (trimethylammoniumethyl) reagent solution in DMF. The solutions were mixed in a 1:1 ratio, and 200 µL of the mix was added to dry samples to be derived. For the derivation, the samples were incubated for 3h at 50°C. DMF was then evaporated using a Genevac™ device, under vacuum, at 60°C for 4h.
(§4) Before injection, the samples were solubilized in a 90/10 acetonitrile/isopropanol mixture with 1% HCl. After solubilization, the samples were stirred and centrifuged at 4000 rpm for 20 min at 10°C.
(§5) For the separation of the derived fatty acids by liquid chromatography, a Waters Acquity ultra-performance liquid chromatography (UPLC) system (Acquity I-Class, Waters) was used. […]
(§6) After separation by liquid chromatography, the analytes were subjected to MS analysis using a Waters Xevo TQSmicro system (Waters). […] The molecules were analyzed using MRM (multiple reaction monitoring) mode, with the main daughter ion for each derived fatty acid corresponding to the loss of a trimethylammonium moiety (m/z 59). Derived FAs with a chain length from 16 to 28, with no or one unsaturation, were analyzed. […] The acquired data were analyzed by the Waters MassLynx software.

PEX405 cells [1] = experiment: Beta-oxidation of d4-C24:0 (LC-MS/MS); conditions: 3 days of treatment, dose response manner
Protocol: as §1, §2, §3, §4, §5, §6

PEX405 cells [2] = experiment: Plasmalogens synthesis (LC-MS/MS); conditions: treatment over 3 days
Protocol: The assay was performed in T75 culture flasks for 3 or 10 days. The medium was replaced by fresh medium every 2-3 days. After 3 or 10 days, the cells were harvested and lysated in water (100-200 µL) by freeze/thaw cycle and sonication for 5 min. Total proteins were quantified using BCA assay and 100 µg of total proteins were used for each sample.
After cell lysis, the samples were dried using a rotating evaporator (Genevac EZ-2, SP Scientific), set at 40°C for 2h under vacuum. Then a solution containing water/acetonitrile 20/80 v/v was added to the wells. Before analysis, the samples were centrifuged at 4000 rpm for 20 min at room temperature. For the separation of plasmalogens by liquid chromatography, a Waters Acquity ultra-performance liquid chromatography (UPLC) system (Acquity I-Class, Waters) was used. A Waters Acquity UPLC BEH (Ethylene Bridged Hybrid) C8 column (2.1 × 50mm, particle size 1.7 µm, pore size 130 A, 2.1mm inner diameter) preceded by a metal pre-filter (KrudKatcher Ultra HPLC In-Line Filter, AF0-8497, Phenomenex) was used for separation. The column temperature was maintained at 50°C. The injection volume was 5µL for each analysis. The mobile phase A was composed of water + 0.1% formic acid and the mobile phase B was methanol + 0.1% formic acid. The separation was done using a gradient, with a flow rate set at 0.7 mL/min throughout the separation:
During analysis, the samples were kept at 10°C, and 5 µL of each sample were injected. After separation by liquid chromatography, the analytes were subjected to MS/MS analysis using a Waters Xevo TQSmicro system (Waters). The analytes were ionized using positive electrospray ionization (positive ESI). The molecules were analyzed using MRM mode. The analyzed plasmalogens contained moieties with C16:0, C18:0, C18:1 at the sn-1 position and fatty acid of chain-length 18 to 24 with 1 to 6 unsaturations at the sn-2 position. […] The cellular levels of plasmalogens were calculated using the area of each plasmalogen divided by protein quantity. […] The acquired data were analyzed by the Waters MassLynx software.

[3] = 0.5 µM for 3 or 10 days, compared to non-treated cells

Row | Compound | relative d4-VLCFA levels (C26, C28) (GM16513 cells; [3]) | shortest d4-FA (C16, C18) levels (GM16513 cells; [3]) | d4-C16,C18,C20 and C22 levels (GM16513 cells; 3 days of treatment, dose response manner) | d4-C16,C18,C20 and C22 levels (PEX405 cells [1]) | plasmalogen levels (PEX405 cells [2])
1 | O=C(/C=C/c1cccc(S(=O)(=O)Nc2ccccc2)c1)NO [Belinostat] | decrease | increase | – | – | –
2 | CCN(CC)Cc1ccc2cc(COC(=O)Nc3ccc(C(=O)NO)cc3)ccc2c1 [Givinostat (hydrochloride monohydrate), Givinostat] | – | – | increase | increase | increased
